Where a name gives a salt, the structure may show the parent alone.
Biological target: human PDE10A (UniProt Q9Y233)
Assay: Measurement of PDE activity (recombinant enzyme, HTRF cAMP kit)
Type: biochemical
Details: Table 1, substrate 20 nM for PDE10, 60 minutes at 29 C, read-out: IC50
How it was run: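 Recombinant human PDE10A (10–250 pM range across PDEs) with 20 nM cAMP substrate in 20 mM Tris-HCl pH 7.5, 10 mM MgCl2, 0.1% BSA, compound pre-mixed with enzyme. Ran 60 min at 29 °C. Remaining cAMP read by HTRF, converted to % of uninhibited activity, and IC50 fitted.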

Chain of human PDE10A (Q9Y233 290-1055 limits assumed): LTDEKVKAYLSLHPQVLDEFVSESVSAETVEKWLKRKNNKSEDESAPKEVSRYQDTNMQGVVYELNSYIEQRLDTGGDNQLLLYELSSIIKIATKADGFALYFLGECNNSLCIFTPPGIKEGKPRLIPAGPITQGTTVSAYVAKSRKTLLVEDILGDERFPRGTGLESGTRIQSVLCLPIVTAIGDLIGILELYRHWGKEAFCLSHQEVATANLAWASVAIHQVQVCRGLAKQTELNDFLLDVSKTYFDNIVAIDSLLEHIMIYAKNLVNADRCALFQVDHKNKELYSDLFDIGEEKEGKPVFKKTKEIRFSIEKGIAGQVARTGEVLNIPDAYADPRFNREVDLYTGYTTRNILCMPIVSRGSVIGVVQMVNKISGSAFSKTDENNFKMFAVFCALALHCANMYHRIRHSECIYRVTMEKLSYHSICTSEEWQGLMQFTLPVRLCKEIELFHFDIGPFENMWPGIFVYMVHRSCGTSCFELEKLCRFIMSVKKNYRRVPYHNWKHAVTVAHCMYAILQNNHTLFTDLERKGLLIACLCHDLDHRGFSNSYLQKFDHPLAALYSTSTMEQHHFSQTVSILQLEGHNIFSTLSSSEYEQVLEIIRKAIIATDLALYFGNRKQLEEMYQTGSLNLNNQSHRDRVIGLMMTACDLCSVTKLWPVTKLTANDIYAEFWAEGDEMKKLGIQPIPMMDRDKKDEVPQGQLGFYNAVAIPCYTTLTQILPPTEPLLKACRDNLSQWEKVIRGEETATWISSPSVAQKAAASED

Row | IC50 | Compound
1 | < 100 nM | N#Cc1ccc(-c2cccc3cnn(CCc4ccc5ccccc5n4)c(=O)c23)cc1 [Example 103, 4-{4-Oxo-3-[2-(quinolin-2-yl)ethyl]-3,4-dihydrophthalazin-5-yl}benzonitrile]
2 | 100 to 200 nM | COc1ccc(-c2cccc3cnn(CCc4ccc5ccccc5n4)c(=O)c23)cc1 [Example 104, 8-(4-Methoxyphenyl)-2-[2-(quinolin-2-yl)ethyl]phthalazin-1(2H)-one]
3 | < 100 nM | O=c1c2c(-c3cccc(F)c3)cccc2cnn1CCc1ccc2ccccc2n1 [Example 115, 8-(3-Fluorophenyl)-2-[2-(quinolin-2-yl)ethyl]phthalazin-1(2H)-one]
4 | < 100 nM | O=c1c2c(-c3cccc(O)c3)cccc2cnn1CCc1ccc2ccccc2n1 [Example 116, 8-(3-Hydroxyphenyl)-2-[2-(quinolin-2-yl)ethyl]phthalazin-1(2H)-one]
5 | 100 to 200 nM | Cc1n[nH]c(C)c1-c1cccc2cnn(CCc3ccc4ccccc4n3)c(=O)c12 [Example 121, 8-(3,5-Dimethyl-1H-pyrazol-4-yl)-2-[2-(quinolin-2-yl)ethyl]phthalazin-1(2H)-one]
6 | 200 to 500 nM | O=c1c2c(-c3ccc4[nH]ccc4c3)cccc2cnn1CCc1ccc2ccccc2n1 [Example 122, 8-(1H-Indol-5-yl)-2-[2-(quinolin-2-yl)ethyl]phthalazin-1(2H)-one]
7 | 200 to 500 nM | O=c1c2c(-c3ccc4cc[nH]c4c3)cccc2cnn1CCc1ccc2ccccc2n1 [Example 123, 8-(1H-Indol-6-yl)-2-[2-(quinolin-2-yl)ethyl]phthalazin-1(2H)-one]
8 | < 100 nM | COc1cncc(-c2cccc3cnn(CCc4ccc5ccccc5n4)c(=O)c23)c1 [Example 136, 8-(5-Methoxypyridin-3-yl)-2-[2-(quinolin-2-yl)ethyl]phthalazin-1(2H)-one]
9 | 200 to 500 nM | CC(C)Cn1cc(-c2cccc3cnn(CCc4ccc5ccccc5n4)c(=O)c23)cn1 [Example 140, 8-[1-(2-Methylpropyl)-1H-pyrazol-4-yl]-2-[2-(quinolin-2-yl)ethyl]phthalazin-1(2H)-one]
10 | 100 to 200 nM | COc1ccc(-c2cccc3cnn(CCc4ccc5ccccc5n4)c(=O)c23)cc1OC [Example 148, 8-(3,4-Dimethoxyphenyl)-2-[2-(quinolin-2-yl)ethyl]phthalazin-1(2H)-one]
11 | 200 to 500 nM | COc1cc(OC)cc(-c2cccc3cnn(CCc4ccc5ccccc5n4)c(=O)c23)c1 [Example 152, 8-(3,5-Fimethoxyphenyl)-2-[2-(quinolin-2-yl)ethyl]phthalazin-1(2H)-one]
12 | 200 to 500 nM | COc1ccc(-c2cccc3cnn(CCc4ccc5ccccc5n4)c(=O)c23)cc1F [Example 154, 8-(3-Fluoro-4-methoxyphenyl)-2-[2-(quinolin-2-yl)ethyl]phthalazin-1(2H)-one]
13 | 100 to 200 nM | O=c1c2c(-c3cc(F)cc(F)c3)cccc2cnn1CCc1ccc2ccccc2n1 [Example 156, 8-(3,5-Difluorophenyl)-2-[2-(quinolin-2-yl)ethyl]phthalazin-1(2H)-one]
14 | < 100 nM | Cn1nccc1-c1cccc2cnn(CCc3ccc4ccccc4n3)c(=O)c12 [Example 161, 8-(1-Methyl-1H-pyrazol-5-yl)-2-[2-(quinolin-2-yl)ethyl]phthalazin-1(2H)-one hydrochloride]
15 | 200 to 500 nM | Cc1ccc(-c2cccc3cnn(CCc4ccc5ccccc5n4)c(=O)c23)c(F)c1 [Example 163, 8-(2-Fluoro-4-methylphenyl)-2-[2-(quinolin-2-yl)ethyl]phthalazin-1(2H)-one]
16 | 200 to 500 nM | O=c1c2c(-c3cccnc3)cccc2cnn1CCc1cn2ccccc2n1 [Example 165, 2-[2-(Imidazo[1,2-a]pyridin-2-yl)ethyl]-8-(pyridin-3-yl)phthalazin-1(2H)-one]
17 | < 100 nM | O=c1c2c(-c3ccncc3)cccc2cnn1CCc1cn2ccccc2n1 [Example 166, 2-[2-(Imidazo[1,2-a]pyridin-2-yl)ethyl]-8-(pyridin-4-yl)phthalazin-1(2H)-one]

Second part, the compound before the results:

Row | Compound | IC50
18 | O=c1c2c(-c3ccc(F)cc3)cccc2cnn1CCc1ccc2ccccc2n1 [Example 105, 8-(4-Fluorophenyl)-2-[2-(quinolin-2-yl)ethyl]phthalazin-1(2H)-one] | 100 to 200 nM
19 | N#CCc1ccc(-c2cccc3cnn(CCc4ccc5ccccc5n4)c(=O)c23)cc1 [Example 106, (4-{4-Oxo-3-[2-(quinolin-2-yl)ethyl]-3,4-dihydrophthalazin-5-yl}phenyl)acetonitrile] | < 100 nM
20 | O=c1c2c(-c3ccc(O)cc3)cccc2cnn1CCc1ccc2ccccc2n1 [Example 107, 8-(4-Hydroxyphenyl)-2-[2-(quinolin-2-yl)ethyl]phthalazin-1(2H)-one] | < 100 nM
21 | O=c1c2c(-c3ccccc3Cl)cccc2cnn1CCc1ccc2ccccc2n1 [Example 108, 8-(2-chlorophenyl)-2-[2-(quinolin-2-yl)ethyl]phthalazin-1(2H)-one] | 200 to 500 nM
22 | Cc1ccccc1-c1cccc2cnn(CCc3ccc4ccccc4n3)c(=O)c12 [Example 109, 8-(2-Methylphenyl)-2-[2-(quinolin-2-yl)ethyl]phthalazin-1(2H)-one] | 200 to 500 nM
23 | O=c1c2c(-c3ccccc3F)cccc2cnn1CCc1ccc2ccccc2n1 [Example 111, 8-(2-Fluorophenyl)-2-[2-(quinolin-2-yl)ethyl]phthalazin-1(2H)-one] | < 100 nM
24 | COc1cccc(-c2cccc3cnn(CCc4ccc5ccccc5n4)c(=O)c23)c1 [Example 113, 8-(3-Methoxyphenyl)-2-[2-(quinolin-2-yl)ethyl]phthalazin-1(2H)-one] | 100 to 200 nM
25 | N#Cc1cccc(-c2cccc3cnn(CCc4ccc5ccccc5n4)c(=O)c23)c1 [Example 114, 3-{4-Oxo-3-[2-(quinolin-2-yl)ethyl]-3,4-dihydrophthalazin-5-yl}benzonitrile] | 100 to 200 nM
26 | CN(C)C(=O)c1cccc(-c2cccc3cnn(CCc4ccc5ccccc5n4)c(=O)c23)c1 [Example 117, N,N-Dimethyl-3-{4-oxo-3-[2-(quinolin-2-yl)ethyl]-3,4-dihydrophthalazin-5-yl}benzamide] | 100 to 200 nM
27 | O=c1c2c(-c3cccs3)cccc2cnn1CCc1ccc2ccccc2n1 [Example 119, 2-[2-(Quinolin-2-yl)ethyl]-8-(thiophen-2-yl)phthalazin-1(2H)-one] | 200 to 500 nM
28 | O=c1c2c(-c3cncnc3)cccc2cnn1CCc1ccc2ccccc2n1 [Example 124, 8-(Pyrimidin-5-yl)-2-[2-(quinolin-2-yl)ethyl]phthalazin-1(2H)-one] | < 100 nM
29 | COc1ncccc1-c1cccc2cnn(CCc3ccc4ccccc4n3)c(=O)c12 [Example 125, 8-(2-Methoxypyridin-3-yl)-2-[2-(quinolin-2-yl)ethyl]phthalazin-1(2H)-one] | 200 to 500 nM
30 | O=c1c2c(-c3cccnc3)cccc2cnn1CCc1ccc2ccccc2n1 [Example 126, 8-(Pyridin-3-yl)-2-[2-(quinolin-2-yl)ethyl]phthalazin-1(2H)-one] | < 100 nM
31 | O=c1c2c(-c3ccoc3)cccc2cnn1CCc1ccc2ccccc2n1 [Example 127, 8-(Furan-3-yl)-2-[2-(quinolin-2-yl)ethyl]phthalazin-1(2H)-one] | < 100 nM
32 | O=c1c2c(-c3ccc4c(c3)CCO4)cccc2cnn1CCc1ccc2ccccc2n1 [Example 130, 8-(2,3-Dihydro-1-benzofuran-5-yl)-2-[2-(quinolin-2-yl)ethyl]phthalazin-1(2H)-one] | 200 to 500 nM
33 | COc1ccc(-c2cccc3cnn(CCc4ccc5ccccc5n4)c(=O)c23)cn1 [Example 133, 8-(6-Methoxypyridin-3-yl)-2-[2-(quinolin-2-yl)ethyl]phthalazin-1(2H)-one] | < 100 nM
34 | Cc1cc(-c2cccc3cnn(CCc4ccc5ccccc5n4)c(=O)c23)ccn1 [Example 135, 8-(2-Methylpyridin-4-yl)-2-[2-(quinolin-2-yl)ethyl]phthalazin-1(2H)-one] | < 100 nM
35 | O=c1c2c(-c3cncc(F)c3)cccc2cnn1CCc1ccc2ccccc2n1 [Example 137, 8-(5-Fluoropyridin-3-yl)-2-[2-(quinolin-2-yl)ethyl]phthalazin-1(2H)-one] | < 100 nM
36 | O=c1c2c(-c3ccc4c(c3)OCO4)cccc2cnn1CCc1ccc2ccccc2n1 [Example 138, 8-(1,3-Benzodioxol-5-yl)-2-[2-(quinolin-2-yl)ethyl]phthalazin-1(2H)-one] | 200 to 500 nM
37 | Cn1cc(-c2cccc3cnn(CCc4ccc5ccccc5n4)c(=O)c23)cn1 [Example 139, 8-(1-Methyl-1H-pyrazol-4-yl)-2-[2-(quinolin-2-yl)ethyl]phthalazin-1(2H)-one] | < 100 nM
38 | O=c1c2c(-c3ccc(F)cc3Cl)cccc2cnn1CCc1ccc2ccccc2n1 [Example 143, 8-(2-Chloro-4-fluorophenyl)-2-[2-(quinolin-2-yl)ethyl]phthalazin-1(2H)-one] | 200 to 500 nM
39 | O=c1c2c(-c3cccc(F)c3F)cccc2cnn1CCc1ccc2ccccc2n1 [Example 147, 8-(2,3-Difluorophenyl)-2-[2-(quinolin-2-yl)ethyl]phthalazin-1(2H)-one] | < 100 nM
40 | O=c1c2c(-c3ccc(F)c(F)c3)cccc2cnn1CCc1ccc2ccccc2n1 [Example 149, 8-(3,4-difluorophenyl)-2-[2-(quinolin-2-yl)ethyl]phthalazin-1(2H)-one] | 200 to 500 nM
41 | O=c1c2c(-c3cc(F)ccc3F)cccc2cnn1CCc1ccc2ccccc2n1 [Example 153, 8-(2,5-Difluorophenyl)-2-[2-(quinolin-2-yl)ethyl]phthalazin-1(2H)-one] | 100 to 200 nM
42 | COc1cc(F)cc(-c2cccc3cnn(CCc4ccc5ccccc5n4)c(=O)c23)c1 [Example 157, 8-(3-Fluoro-5-methoxyphenyl)-2-[2-(quinolin-2-yl)ethyl]phthalazin-1(2H)-one] | 200 to 500 nM
43 | O=c1c2c(-c3ccccc3)cccc2cnn1CCc1ccc2ccccc2n1 [Example 159, 8-Phenyl-2-[2-(quinolin-2-yl)ethyl]phthalazin-1(2H)-one] | < 100 nM

From patent US20130116241A1, “NOVEL INHIBITOR COMPOUNDS OF PHOSPHODIESTERASE TYPE 10A” (AbbVie Inc., priority 2011, published 2013)
